# According to patent US7799748B2, “Method of selecting benefit agents/oils suitable for reducing surfactant damage” (Conopco, Inc., priority 2005, dated 2010):
# What was measured:
# [1] = molecular target: BSA (Bovine Serum Albumin) (Bos taurus, UniProt P02769); assay: Conductivity test: surfactant binding to BSA protein; conditions: 10% SDS with 10% oil (1:1) or 10% SDS alone; 0.5% BSA in 0.02M acetate buffer pH~5.2, room temperature
# Method: Conductance measurements were carried out at room temperature by use of a Thermo conductivity meter, model Orion 150+. Routinely, the titrations were performed by adding a controlled amount of 10% of stock surfactant solution under magnetic stirring into the 0.5% BSA (Bovine Serum Albumin) in 0.02M acetate buffer at pH˜5.2. Values of CMC (critical micellization concentration), CAC (critical aggregation concentration) and protein saturation point (PSP) were defined by the changing of the slope of the conductivity vs. surfactant concentration plots. The number of surfactants binding to each protein can be calculated by: {[PSP]−[CAC]}/{[protein]/Mwprotein}, where [protein] is the protein concentration.
# In order to show the effect of benefit agent having different polarity on binding to protein molecule (a reflection of the harshness of surfactant; more surfactant binding to protein equal harsher and more damage expected), applicants tested surfactant binding of (1) surfactant alone and (2) of surfactant in combination with various oils/cosolvents (at 1:1 surfactant to oil ratio) to see level of (how many) surfactants binding per protein molecule (e.g., BSA) at saturation. The tests were done using conductivity test described in protocol and results are set forth below in Table 1.
# Applicants conducted same test as in Examples 1 to 10, but used SLES/CAPB surfactant system instead of SDS.
# BSA protein = BSA protein (Bos taurus, UniProt P02769); assay: Micro-DSC for protein denaturation; parameters: species or system Bovine; conditions: denaturation enthalpy approaching zero, FIG. 5
# Chain of BSA protein (P02769 25-607): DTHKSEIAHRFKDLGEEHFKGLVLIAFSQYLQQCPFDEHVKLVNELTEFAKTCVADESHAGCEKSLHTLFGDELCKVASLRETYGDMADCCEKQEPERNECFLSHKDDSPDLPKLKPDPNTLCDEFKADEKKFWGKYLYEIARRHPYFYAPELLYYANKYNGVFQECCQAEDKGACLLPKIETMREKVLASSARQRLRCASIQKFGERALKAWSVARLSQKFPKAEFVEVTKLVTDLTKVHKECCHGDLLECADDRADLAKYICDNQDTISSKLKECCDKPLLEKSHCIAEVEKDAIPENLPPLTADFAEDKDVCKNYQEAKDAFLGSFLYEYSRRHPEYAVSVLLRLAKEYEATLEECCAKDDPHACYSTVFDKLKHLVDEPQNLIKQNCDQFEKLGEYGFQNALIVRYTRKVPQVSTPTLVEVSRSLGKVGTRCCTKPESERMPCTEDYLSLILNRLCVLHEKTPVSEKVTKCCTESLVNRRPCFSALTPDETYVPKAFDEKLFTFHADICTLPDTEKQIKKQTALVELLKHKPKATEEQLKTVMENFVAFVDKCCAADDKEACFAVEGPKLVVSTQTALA
# Method: 1.2% of BSA acetate buffer solution was prepared (pH 5.2, IS 0.02). […] Then the BSA acetate solution was titrated with either oil, or surfactant, or oil/surfactant at 1:1 ratio. After each titration, a DSC measurement was performed.
# Chain of BSA (Bovine Serum Albumin) (P02769 25-607): as above
smiles,measurement,setting,value
"CCCCCCCCCCCCOS(=O)(=O)[O-].[Na+] [10% SDS (surfactant alone), Sodium dodecyl sulfate]",Saturated binding: No. of surfactant per BSA at saturation,[1],220
same,ratio surfactant to protein at which BSA protein is fully denatured at room temperature,BSA protein,about 1.2
